Results taken from ChEMBL document CHEMBL1201862, “PubChem BioAssay data set” (2004).
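Results reflect a 48-hour exposure of cells in 96-well plates to compound at five concentrations. Here, GI50 denotes the concentration required for 50% inhibition of growth.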 Activity calls are given as the source filed them. No stated cut-off is given here; in the data, active = GI50 up to about 1.1 µM and inactive = higher.

Legend:
Assay in all cases: DTP human tumour cell line panel, 48 h
DU-145 = test system: DU-145
NCI/ADR-RES = test system: NCI/ADR-RES
NCI-H23 = test system: NCI-H23
SK-MEL-2 = test system: SK-MEL-2
RPMI-8226 = test system: RPMI-8226
TK-10 = test system: TK-10
HL-60 = test system: HL-60
HCC 2998 = test system: HCC 2998
SF-539 = test system: SF-539
U-251 = test system: U-251
SK-MEL-28 = test system: SK-MEL-28
SK-OV-3 = test system: SK-OV-3
CAKI-1 = test system: CAKI-1
HCT-116 = test system: HCT-116
MOLT-4 = test system: MOLT-4
MDA-MB-435 = test system: MDA-MB-435
HOP-62 = test system: HOP-62
SF-268 = test system: SF-268
SNB-75 = test system: SNB-75
Malme-3M = test system: Malme-3M

Measured: GI50

CC(C)(C)N(Cc1ccc2c(c1)OCO2)C(=O)/C=C\Sc1ccccc1
inactive: DU-145 > 100 µM | NCI/ADR-RES 89.5 µM | NCI-H23 > 100 µM | SK-MEL-2 25.2 µM | RPMI-8226 30.3 µM | TK-10 > 100 µM | HL-60 37.1 µM | HCC 2998 97.1 µM | SF-539 > 100 µM | U-251 63.7 µM | SK-MEL-28 > 100 µM | SK-OV-3 > 100 µM | CAKI-1 > 100 µM | HCT-116 23.9 µM | MOLT-4 21.1 µM | MDA-MB-435 25.8 µM | HOP-62 > 100 µM

Oc1ccc2ccccc2c1CN(Cc1c(O)ccc2ccccc12)C1CCCCC1
inactive: DU-145 20.3 µM | NCI/ADR-RES 23.5 µM | NCI-H23 17.1 µM | SK-MEL-2 23.3 µM | RPMI-8226 25.1 µM | SF-268 14.1 µM | TK-10 17.3 µM | HCC 2998 14.6 µM | SF-539 16 µM | U-251 20.2 µM | SNB-75 21.8 µM | SK-MEL-28 22.8 µM | SK-OV-3 42 µM | CAKI-1 16.6 µM | HCT-116 15.8 µM | MOLT-4 16.6 µM | MDA-MB-435 19.2 µM | HOP-62 29.7 µM | Malme-3M 15.8 µM

CC1C(=O)C23OC[C@@]1(C)C1(O)CC[C@@H](C)[C@]21CC3=O (stereo partly specified)
inactive: DU-145 > 100 µM | NCI/ADR-RES > 100 µM | NCI-H23 > 100 µM | SK-MEL-2 > 100 µM | RPMI-8226 > 100 µM | SF-268 > 100 µM | TK-10 > 100 µM | HL-60 > 100 µM | HCC 2998 > 100 µM | SF-539 > 100 µM | U-251 > 100 µM | SNB-75 > 100 µM | SK-MEL-28 > 100 µM | SK-OV-3 > 100 µM | HCT-116 > 100 µM | MOLT-4 > 100 µM | MDA-MB-435 > 100 µM | HOP-62 > 100 µM | Malme-3M > 100 µM

Cc1nc2ccc(/N=N/N(C)C)cc2[nH]1
inactive: DU-145 > 100 µM | NCI/ADR-RES > 100 µM | SK-MEL-2 > 100 µM | RPMI-8226 > 100 µM | SF-268 > 100 µM | TK-10 > 100 µM | HCC 2998 > 100 µM | U-251 > 100 µM | SNB-75 > 100 µM | SK-MEL-28 > 100 µM | SK-OV-3 > 100 µM | CAKI-1 > 100 µM | HCT-116 > 100 µM | MOLT-4 > 100 µM | MDA-MB-435 > 100 µM | HOP-62 > 100 µM | Malme-3M > 100 µM

Cc1ccc(S(=O)(=O)N[C@@H](Cc2ccccc2)C(=O)CCl)cc1 [TPCK]
inactive: DU-145 17.7 µM | NCI/ADR-RES 19.9 µM | NCI-H23 13.6 µM | SK-MEL-2 12.9 µM | SF-268 15.7 µM | TK-10 17.2 µM | HL-60 4.66 µM | HCC 2998 13.9 µM | SF-539 16.5 µM | U-251 16.2 µM | SNB-75 14.3 µM | SK-MEL-28 18.6 µM | SK-OV-3 24.2 µM | HCT-116 11.6 µM | MDA-MB-435 14.3 µM | HOP-62 17.3 µM | Malme-3M 14.6 µM

CN(C)CCCn1c(Cc2ccc(Cl)cc2)nc2cc(C(F)(F)F)ccc21
inactive: DU-145 14.1 µM | NCI/ADR-RES 15.7 µM | NCI-H23 15.8 µM | SK-MEL-2 16.9 µM | RPMI-8226 40.8 µM | SF-268 14.1 µM | TK-10 15.3 µM | HL-60 29.6 µM | HCC 2998 2 µM | SF-539 16.3 µM | U-251 15.3 µM | SK-MEL-28 17.9 µM | SK-OV-3 14.4 µM | CAKI-1 13.3 µM | HCT-116 12.5 µM | MOLT-4 11.2 µM | MDA-MB-435 12.9 µM | HOP-62 15.2 µM | Malme-3M 11 µM

C=C1CCCCCCCCCCC12SCCC2CCCCSC (stereo unspecified)
inactive: DU-145 40.6 µM | NCI/ADR-RES 20.8 µM | NCI-H23 25.7 µM | SK-MEL-2 17.5 µM | RPMI-8226 24.4 µM | SF-268 28.7 µM | HL-60 26.5 µM | HCC 2998 21.4 µM | SF-539 20.6 µM | U-251 17.9 µM | SK-MEL-28 26.5 µM | SK-OV-3 47.3 µM | HCT-116 17.8 µM | MOLT-4 21.3 µM | MDA-MB-435 26.1 µM | HOP-62 20 µM | Malme-3M 19.7 µM

O=C1c2cc(Br)ccc2-c2ccc3c4ccc5c6c(ccc(c7ccc1c2c73)c64)C(=O)c1cc(Br)ccc1-5
inactive: DU-145 > 100 µM | NCI/ADR-RES > 100 µM | NCI-H23 > 100 µM | SK-MEL-2 > 100 µM | RPMI-8226 > 100 µM | SF-268 > 100 µM | TK-10 > 100 µM | HL-60 25.8 µM | HCC 2998 > 100 µM | SF-539 > 100 µM | U-251 > 100 µM | SK-MEL-28 > 100 µM | SK-OV-3 > 100 µM | CAKI-1 > 100 µM | HCT-116 > 100 µM | MDA-MB-435 > 100 µM | HOP-62 > 100 µM | Malme-3M > 100 µM

O=C(O)CC(NC(=O)CP(=O)(O)O)C(=O)O (stereo unspecified)
inactive: DU-145 933 µM | NCI/ADR-RES 1020 µM | NCI-H23 2800 µM | SK-MEL-2 2470 µM | RPMI-8226 244 µM | SF-268 180 µM | TK-10 1420 µM | HL-60 283 µM | HCC 2998 7930 µM | U-251 71.9 µM | SNB-75 6080 µM | SK-OV-3 5730 µM | HCT-116 21.5 µM | MOLT-4 238 µM | MDA-MB-435 37.6 µM | HOP-62 313 µM | Malme-3M 2360 µM

COc1ccc(O[C@H](COCc2ccccc2)C[C@@H]2COC(C)(C)O2)cc1
inactive: DU-145 > 100 µM | NCI/ADR-RES > 100 µM | NCI-H23 > 100 µM | SK-MEL-2 > 100 µM | RPMI-8226 > 100 µM | SF-268 > 100 µM | TK-10 > 100 µM | HCC 2998 > 100 µM | SF-539 > 100 µM | U-251 > 100 µM | SNB-75 > 100 µM | SK-MEL-28 > 100 µM | SK-OV-3 > 100 µM | CAKI-1 > 100 µM | HCT-116 > 100 µM | MOLT-4 > 100 µM | MDA-MB-435 > 100 µM | HOP-62 > 100 µM | Malme-3M > 100 µM

COC(=O)C12CCC(C(=O)OC)(Cc3c(c4ccccc4n3S(=O)(=O)c3ccccc3)C1)C2=O (stereo unspecified)
inactive: DU-145 > 100 µM | NCI/ADR-RES 16.7 µM | NCI-H23 > 100 µM | SK-MEL-2 > 100 µM | RPMI-8226 > 100 µM | SF-268 > 61 µM | TK-10 > 56.2 µM | HCC 2998 > 76.9 µM | SF-539 > 40.6 µM | U-251 > 100 µM | SNB-75 > 60.7 µM | SK-MEL-28 > 100 µM | SK-OV-3 > 70.8 µM | CAKI-1 > 62.4 µM | MDA-MB-435 > 100 µM | HOP-62 > 100 µM | Malme-3M 36.1 µM
